Experiments:
HepG2 [1] = assay: Cytotoxicity against human HepG2 cells assessed as cell viability at 10 uM incubated for 1 hr by EZ-Cytox cell viability assay; format: cell-based; details: hepg2, 1 h
HepG2 [2] = assay: Hepatoprotective activity against H2O2-induced cell death in human HepG2 cells assessed as cell viability at 10 uM preincubated for 1 hr followed by H2O2-stimulation and measured after 24 hrs by EZ-Cytox cell viability assay (reference value: 43.9 +/- 5.25%); format: functional; details: read-out: Activity
HepG2 [3] = assay: Inhibition of H2O2-induced ROS accumulation in human HepG2 cells assessed as ROS generation at 10 uM preincubated for 1 hr followed by H2O2-stimulation and measured after 30 mins by H2DCFDA staining based flow cytometry (reference value: 100 +/- 11.53%); format: functional; design: scale not given: the % may be the effect or the level left
HepG2 [4] = assay: Hepatoprotective activity against H2O2-induced cell death in human HepG2 cells assessed as cell viability at 50 uM preincubated for 1 hr followed by H2O2-stimulation and measured after 24 hrs by EZ-Cytox cell viability assay (reference value: 43.9 +/- 5.25%); format: functional; details: read-out: Activity
HepG2 [5] = assay: Inhibition of H2O2-induced ROS accumulation in human HepG2 cells at 50 uM assessed as ROS generation preincubated for 1 hr followed by H2O2-stimulation and measured after 30 mins by H2DCFDA staining based flow cytometry (reference value: 100 +/- 11.53%); format: functional; design: scale not given: the % may be the effect or the level left

Structure (SMILES) | Activity (HepG2 [1]) | viability at 10 µM (HepG2 [2]) [%] | Activity (HepG2 [3]) [%] | viability at 50 µM (HepG2 [4]) [%] | Activity (HepG2 [5]) [%]
C/C=C/c1cc(OC)c(OC)c(OC)c1 | Non-Toxic | 62.2 | 75.8 |  | 
COc1c2ccoc2c(OC[C@@H](O)C(C)(C)OC)c2oc(=O)ccc12 | Non-Toxic | 40.4 | 52 |  | 
CC1(C)O[C@@H]1COc1c2ccoc2cc2oc(=O)ccc12 | Non-Toxic | 59.3 | 103.9 |  | 
COc1c2ccoc2c(O)c2oc(=O)ccc12 | Non-Toxic | 34.6 | 38.1 |  | 
COc1c2c(c(OCC=C(C)C)c3occc13)O[C@]1(C=C2)O[C@H](COc2c3ccoc3cc3oc(=O)ccc23)C(C)(C)O1 | Non-Toxic | 64.1 | 79.9 |  | 
COc1c2ccoc2c(OC/C=C(/C)COC(=O)CC(C)C)c2oc(=O)ccc12 | Non-Toxic | 58.5 | 90.1 |  | 
CC(C)=CCOc1c2occc2c(OC[C@@H](O)C(C)(C)O)c2ccc(=O)oc12 | Non-Toxic | 51 | 78 |  | 
CC(C)=CCOc1c2occc2c(OC[C@H]2OC2(C)C)c2ccc(=O)oc12 | Non-Toxic | 56.2 | 65.5 |  | 
C=C(C)[C@H](O)COc1c2ccoc2c(OCC=C(C)C)c2oc(=O)ccc12 | Non-Toxic | 50.9 | 63.9 |  | 
COc1c2c(c(OCC=C(C)C)c3occc13)O[C@@]1(C=C2)O[C@H](COc2c3ccoc3cc3oc(=O)ccc23)C(C)(C)O1 | Non-Toxic | 63 | 100 |  | 
CC(C)=CCOc1c2ccoc2c(OCC(O)C(C)(C)O)c2oc(=O)ccc12 (single isomer, unassigned; (-)) | Non-Toxic | 61.1 | 85.3 |  | 
COc1c2ccoc2cc2oc(=O)ccc12 [BERGAPTEN] | Non-Toxic | 60.3 | 92.7 |  | 
COc1c2ccoc2c(OC[C@@H](O)C(C)(C)O)c2oc(=O)ccc12 [BYAKANGELICIN] | Non-Toxic | 46.5 | 57.9 |  | 
CC(C)=CCOc1c2ccoc2cc2oc(=O)ccc12 [ISOIMPERATORIN] | Non-Toxic | 67 | 71.1 |  | 
COc1c2occc2c(OCC=C(C)C)c2ccc(=O)oc12 [KINIDILIN] | Non-Toxic | 60.5 | 51.3 |  | 
COc1c2occc2cc2ccc(=O)oc12 [METHOXSALEN] | Non-Toxic | 56.5 | 77 |  | 
CC(C)(O)[C@H](O)COc1c2ccoc2cc2oc(=O)ccc12 [OXYPEUCEDANIN HYDRATE] | Non-Toxic | 47.5 | 92.8 |  | 
CC(C)=CCOc1c2occc2cc2ccc(=O)oc12 [PENTOSALEN] | Non-Toxic | 71.5 | 77.1 |  | 
COc1c2ccoc2c(OCC=C(C)C)c2oc(=O)ccc12 [PHELLOPTERIN] | Non-Toxic | 57.6 | 58.3 |  | 
O=c1ccc2cc3ccoc3cc2o1 [PSORALEN] | Non-Toxic | 55.5 | 101.4 |  | 
O=C(/C=C/c1ccc(O)c(O)c1)O[C@H](Cc1ccc(O)c(O)c1)C(=O)O [ROSMARINIC ACID] |  |  |  | 65.3 | 49.3
